Test: HCV replicon assay (luciferase) in ET (Huh-lucubineo-ET) cell line
Assay type: cell-based
Conditions: Hepatitis C virus; tested at 10 μM; inhibition of replication relative to no compound control; ET replicon cells, luciferase 48-72 hours; read-out: % inhition at 10 μM

Structure (SMILES) | inhibition at 10 µM [%]
Fc1cccc(-c2nc3cnn(Cc4cc(-c5ccc(OCCN6CCOCC6)cc5)no4)cc-3n2)c1F [Compound 196, 2-(2,3-Difluoro-phenyl)-5-{3-[4-(2-morpholin-4-yl-ethoxy)-phenyl]-isoxazol-5-ylmethyl}-5H-imidazo[4,5-d]pyridazine] | 89
CCCOC(=O)c1cc(-c2cc(Cn3cc4nc(-c5cccc(F)c5F)nc-4cn3)on2)ccc1OCCC [Compound 197, 5-{5-[2-(2,3-Difluoro-phenyl)-imidazo[4,5-d]pyridazin-5-ylmethyl]-isoxazol-3-yl}-2-propoxy-benzoic acid propyl ester] | 54.1
COC(=O)c1cc(OC)ccc1-c1cc(Cn2cc3nc(-c4cccc(F)c4F)nc-3cn2)on1 [Compound 198, 2-{5-[2-(2,3-Difluoro-phenyl)-imidazo[4,5-d]pyridazin-5-ylmethyl]-isoxazol-3-yl}-5-methoxy-benzoic acid methyl ester] | 50.3
O=[N+]([O-])c1ccc(-c2cc(Cn3cc4nc(-c5cccc(F)c5F)nc-4cn3)on2)cc1 [Compound 199, 2-(2,3-Difluoro-phenyl)-5-[3-(4-nitro-phenyl)-isoxazol-5-ylmethyl]-5H-imidazo[4,5-d]pyridazine] | 98.5
Fc1cccc(-c2nc3cnn(Cc4cc(-c5ccc(Br)cc5)no4)cc-3n2)c1F [Compound 200, 5-[3-(4-bromo-phenyl)-isoxazol-5-ylmethyl]-2-(2,3-difluoro-phenyl)-5H-imidazo[4,5-d]pyridazine] | 99.4
CCCCc1ccc(-c2cc(Cn3cc4nc(-c5cccc(F)c5F)nc-4cn3)on2)cc1 [Compound 201, 5-[3-(4-Butyl-phenyl)-isoxazol-5-ylmethyl]-2-(2,3-difluoro-phenyl)-5H-imidazo[4,5-d]pyridazine] | 100
Fc1cccc(-c2nc3cnn(Cc4cc(-c5ccc(C(F)(F)F)cc5)no4)cc-3n2)c1F [Compound 202, 2-(2,3-Difluoro-phenyl)-5-[3-(4-trifluoromethyl-phenyl)-isoxazol-5-ylmethyl]-5H-imidazo[4,5-d]pyridazine] | 99.2
Fc1cc(C(F)(F)F)ccc1-c1cc(Cn2cc3nc(-c4cccc(F)c4F)nc-3cn2)on1 [Compound 203, 2-(2,3-Difluoro-phenyl)-5-[3-(2-fluoro-4-trifluoromethyl-phenyl)-isoxazol-5-ylmethyl]-5H-imidazo[4,5-d]pyridazine] | 99.6
Fc1cccc(-c2nc3cnn(Cc4cc(-c5ccc(C(F)(F)F)nc5)no4)cc-3n2)c1F [Compound 205, 2-(2,3-Difluoro-phenyl)-5-[3-(6-trifluoromethyl-pyridin-3-yl)-isoxazol-5-ylmethyl]-5H-imidazo[4,5-d]pyridazine] | 98.7
Fc1cc(-c2cc(Cn3cc4nc(-c5cccc(F)c5F)nc-4cn3)on2)ccc1C(F)(F)F [Compound 206, 2-(2,3-Difluoro-phenyl)-5-[3-(3-fluoro-4-trifluoromethyl-phenyl)-isoxazol-5-ylmethyl]-5H-imidazo[4,5-d]pyridazine] | 98.1
FCCCOc1ccc(-c2cc(Cn3cc4nc(-c5cccc(F)c5F)nc-4cn3)on2)cc1 [Compound 207, 2-(2,3-Difluoro-phenyl)-5-{3-[4-(3-fluoro-propoxy)-phenyl]-isoxazol-5-ylmethyl}-5H-imidazo[4,5-d]pyridazine] | 99.5
CN(C)c1ccc(-c2cc(Cn3cc4nc(-c5cccc(F)c5F)nc-4cn3)on2)cc1 [Compound 208, (4-{5-[2-(2,3-Difluoro-phenyl)-imidazo[4,5-d]pyridazin-5-ylmethyl]-isoxazol-3-yl}-phenyl)-dimethyl-amine] | 69.7
COC(=O)c1ccc(-c2cc(Cn3cc4nc(-c5cccc(F)c5F)nc-4cn3)on2)cc1 [Compound 209, 4-{5-[2-(2,3-difluoro-phenyl)-imidazo[4,5-d]pyridazin-5-ylmethyl]-isoxazol-3-yl}-benzoic acid methyl ester] | 93.6
N#Cc1ccc(-c2cc(Cn3cc4nc(-c5cccc(F)c5F)nc-4cn3)on2)cc1 [Compound 213, 4-{5-[2-(2,3-Difluoro-phenyl)-imidazo[4,5-d]pyridazin-5-ylmethyl]-isoxazol-3-yl}-benzonitrile] | 98.1
Fc1cccc(-c2nc3cnn(Cc4cc(-c5ccc(OC(F)(F)F)cc5)no4)cc-3n2)c1F [Compound 214, 2-(2,3-Difluoro-phenyl)-5-[3-(4-trifluoromethoxy-phenyl)-isoxazol-5-ylmethyl]-5H-imidazo[4,5-d]pyridazine] | 98.5
CN(C)CCCOc1ccc(-c2cc(Cn3cc4nc(-c5cccc(F)c5F)nc-4cn3)on2)cc1 [Compound 216, [3-(4-{5-[2-(2,3-Difluoro-phenyl)-imidazo[4,5-d]pyridazin-5-ylmethyl]-isoxazol-3-yl}-phenoxy)-propyl]-dimethyl-amine] | 79.1
Fc1cccc(-c2nc3cnn(Cc4cc(-c5ccc(CN6CCCC6)cc5)no4)cc-3n2)c1F [Compound 219, 2-(2,3-Difluoro-phenyl)-5-[3-(4-pyrrolidin-1-ylmethyl-phenyl)-isoxazol-5-ylmethyl]-5H-imidazo[4,5-d]pyridazine] | 35

Structure (SMILES) | inhibition at 10 µM [%]
CCOc1ccc(-c2cc(Cn3cc4nc(-c5cccc(F)c5F)nc-4cn3)on2)cc1 [Compound 220, 2-(2,3-Difluoro-phenyl)-5-[3-(4-ethoxy-phenyl)-isoxazol-5-ylmethyl]-5H-imidazo[4,5-d]pyridazine] | 99.7
COc1ccc(-c2cc(Cn3cc4nc(-c5cccc(F)c5F)nc-4cn3)on2)cc1 [Compound 221, 2-(2,3-Difluoro-phenyl)-5-[3-(4-methoxy-phenyl)-isoxazol-5-ylmethyl]-5H-imidazo[4,5-d]pyridazine] | 98.9
CCCCOc1ccc(-c2cc(Cn3cc4nc(-c5cccc(F)c5F)nc-4cn3)on2)cc1 [Compound 222, 5-[3-(4-Butoxy-phenyl)-isoxazol-5-ylmethyl]-2-(2,3-difluoro-phenyl)-5H-imidazo[4,5-d]pyridazine] | 98.2
CC(c1cc(-c2ccc(C(F)(F)F)cc2C(F)(F)F)no1)n1cc2nc(-c3cccc(F)c3F)nc-2cn1 (stereo not drawn) [Compound 226, 5-{1-[3-(2,4-Bis-trifluoromethyl-phenyl)-isoxazol-5-yl]-ethyl}-2-(2,3-difluoro-phenyl)-5H-imidazo[4,5-d]pyridazine] | 99.7
CC(C)(c1cc(-c2ccc(C(F)(F)F)cc2C(F)(F)F)no1)n1cc2nc(-c3cccc(F)c3F)nc-2cn1 [Compound 227, 5-{1-[3-(2,4-Bis-trifluoromethyl-phenyl)-isoxazol-5-yl]-1-methyl-ethyl}-2-(2,3-difluoro-phenyl)-5H-imidazo[4,5-d]pyridazine] | 97.9
COc1ccc(-c2noc(Cn3cc4nc(-c5cccc(F)c5F)nc-4cn3)n2)cc1 [Compound 228, 2-(2,3-Difluoro-phenyl)-5-[3-(4-methoxy-phenyl)-[1,2,4]oxadiazol-5-ylmethyl]-5H-imidazo[4,5-d]pyridazine] | 40.8
Fc1cccc(-c2nc3cnn(Cc4noc(-c5ccc(C(F)(F)F)cc5)n4)cc-3n2)c1F [Compound 230, 2-(2,3-Difluoro-phenyl)-5-[5-(4-trifluoromethyl-phenyl)-[1,2,4]oxadiazol-3-ylmethyl]-5H-imidazo[4,5-d]pyridazine] | 35.8
FC(F)(F)c1ccc(-c2cc(Cn3cc4nc(-c5ccccn5)nc-4cn3)on2)c(C(F)(F)F)c1 [Compound 231, 5-[3-(2,4-Bis-trifluoromethyl-phenyl)-isoxazol-5-ylmethyl]-2-pyridin-2-yl-5H-imidazo[4,5-d]pyridazine] | 42
Nc1nn(Cc2cc(-c3ccc(C(F)(F)F)cc3C(F)(F)F)no2)cc2nc(-c3cccc(F)c3F)nc1-2 [Compound 233, 6-[3-(2,4-Bis-trifluoromethyl-phenyl)-isoxazol-5-ylmethyl]-2-(2,3-difluoro-phenyl)-6H-imidazo[4,5-d]pyridazin-4-ylamine] | 96.8
CCCOc1ccc(-c2cc(Cn3cc4nc(-c5cccc(F)c5F)nc-4c(N)n3)on2)cc1 [Compound 235, 2-(2,3-Difluoro-phenyl)-6-[3-(4-propoxy-phenyl)-isoxazol-5-ylmethyl]-6H-imidazo[4,5-d]pyridazin-4-ylamine] | 56
Nc1nn(Cc2cc(-c3ccc(C(F)(F)F)cc3F)no2)cc2nc(-c3cccc(F)c3F)nc1-2 [Compound 236, 2-(2,3-Difluoro-phenyl)-6-[3-(2-fluoro-4-trifluoromethyl-phenyl)-isoxazol-5-ylmethyl]-6H-imidazo[4,5-d]pyridazin-4-ylamine] | 76.8
Nc1nn(Cc2cc(-c3ccc(C(F)(F)F)cc3C(F)(F)F)no2)c(N)c2nc(-c3cccc(F)c3F)nc1-2 [Compound 237, 5-[3-(2,4-Bis-trifluoromethyl-phenyl)-isoxazol-5-ylmethyl]-2-(2,3-difluoro-phenyl)-5H-imidazo[4,5-d]pyridazine-4,7-diamine] | 1.73
Fc1ccccc1-c1nc2cnn(Cc3cc(-c4ccc(Cl)cc4)on3)cc-2n1 [Compound 239, 5-[5-(4-Chloro-phenyl)-isoxazol-3-ylmethyl]-2-(2-fluoro-phenyl)-5H-imidazo[4,5-d]pyridazine] | 95.3
COc1ccc(-c2nc(Cn3cc4nc(-c5ccccc5F)nc-4cn3)no2)cc1 [Compound 240, 2-(2-Fluoro-phenyl)-5-[5-(4-methoxy-phenyl)-[1,2,4]oxadiazol-3-ylmethyl]-5H-imidazo[4,5-d]pyridazine] | 16.4
Fc1cccc(-c2nc3cnn(Cc4cc(-c5ccc(C(F)(F)F)cc5)on4)cc-3n2)c1F [Compound 241, 2-(2,3-Difluoro-phenyl)-5-[5-(4-trifluoromethyl-phenyl)-isoxazol-3-ylmethyl]-5H-imidazo[4,5-d]pyridazine] | 99.7
Fc1cccc(-c2nc3cnn(Cc4cc(-c5ccc(OC(F)(F)F)cc5)on4)cc-3n2)c1F [Compound 242, 2-(2,3-Difluoro-phenyl)-5-[5-(4-trifluoromethoxy-phenyl)-isoxazol-3-ylmethyl]-5H-imidazo[4,5-d]pyridazine] | 97
